Target: human RIP1 kinase domain (2-375) (Homo sapiens (Human), UniProt Q13546)
Test: biochemical
Format: biochemical
Details: Table 1; apparent Ki (Morrison tight-binding fit); 50 nM RIP1 kinase domain, 50 uM ATP, 2 hours incubation; read-out: RIP1 Ki
Outline: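 50 nM purified kinase domain from baculovirus-infected insect cells, incubated 2 h with compound in 50 mM Hepes pH 7.5, 30 mM MgCl2, 1 mM DTT, 50 uM ATP, 0.002% Brij-35, 0.5% DMSO. ADP formation read by Transcreener FP at 633 nm excitation. Ki^app fitted with the Morrison tight-binding equation.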

Sequence of human RIP1 kinase domain (2-375) (Q13546 2-375): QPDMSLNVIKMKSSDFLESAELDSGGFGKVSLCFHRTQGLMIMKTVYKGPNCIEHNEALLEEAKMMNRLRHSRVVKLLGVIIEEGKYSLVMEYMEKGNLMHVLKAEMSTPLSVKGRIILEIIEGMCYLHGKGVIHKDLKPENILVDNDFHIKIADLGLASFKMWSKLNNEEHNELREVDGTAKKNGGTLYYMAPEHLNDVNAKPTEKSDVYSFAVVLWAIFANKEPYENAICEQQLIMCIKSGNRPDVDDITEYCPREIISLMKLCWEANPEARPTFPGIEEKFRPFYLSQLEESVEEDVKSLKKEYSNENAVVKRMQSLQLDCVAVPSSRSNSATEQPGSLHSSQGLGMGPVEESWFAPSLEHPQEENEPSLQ

Row | SMILES | Ki [nM]
1 | CN1C(=O)[C@@H](NC(=O)c2ncn(Cc3ccccc3)n2)CCn2nccc21 [Example 73, (S)-1-benzyl-N-(4-methyl-5-oxo-5,6,7,8-tetrahydro-4H-pyrazolo[1,5-a][1,3]diazepin-6-yl)-1H-1,2,4-triazole-3-carboxamide] | 27
2 | CN1C(=O)[C@@H](NC(=O)c2noc3c2CC(C(C)(C)C)CC3)COc2ccccc21 (stereo partly drawn) [Example 64, 5-(tert-butyl)-N-((S)-5-methyl-4-oxo-2,3,4,5-tetrahydrobenzo[b][1,4]oxazepin-3-yl)-4,5,6,7-tetrahydrobenzo[d]isoxazole-3-carboxamide] | 73.5
3 | CC1CCc2onc(C(=O)N[C@H]3COc4ccccc4N(C)C3=O)c2C1 (stereo partly drawn) [Example 67, 5-methyl-N-((S)-5-methyl-4-oxo-2,3,4,5-tetrahydrobenzo[b][1,4]oxazepin-3-yl)-4,5,6,7-tetrahydrobenzo[d]isoxazole-3-carboxamide] | 107

Same assay, conditions: Table 5; apparent Ki (Morrison tight-binding fit); 50 nM RIP1 kinase domain, 50 uM ATP, 2 hours incubation; read-out: Ki

Row | SMILES | Ki [nM]
4 | COC1CN(Cc2cc3n(n2)CC[C@H](NC(=O)c2ncn(Cc4ccccc4)n2)C(=O)N3C)C1 (single isomer, unassigned) [Example 725] | 172
5 | CN1C(=O)[C@@H](NC(=O)c2ncn(Cc3ccccc3)n2)CCn2nc(CO)cc21 (single isomer, unassigned) [Example 732] | 61
6 | CN1C(=O)[C@@H](NC(=O)c2cc3c(-c4ccccc4)cccn3n2)COc2ccccc21 [Example 713, 4-phenyl-N-[(3S)-5-methyl-4-oxo-2,3-dihydro-1,5-benzoxazepin-3-yl]pyrazolo[1,5-a]pyridine-2-carboxamide] | 5

Same assay, conditions: human RIP1 kinase domain (2-375), 50 uM ATP, 2 hours incubation, Transcreener ADP assay; read-out: RIP1 Ki

Row | SMILES | Ki [nM]
7 | Cc1cc(F)c2c(c1)OC[C@H](NC(=O)c1n[nH]c3c1C[C@@H](C(F)(F)F)CC3)C(=O)N2 [Example 88, (S)—N—((S)-6-fluoro-8-methyl-4-oxo-2,3,4,5-tetrahydrobenzo[b][1,4]oxazepin-3-yl)-5-(trifluoromethyl)-4,5,6,7-tetrahydro-1H-indazole-3-carboxamide] | 16.7
8 | CN1C(=O)[C@@H](NC(=O)c2ncn(CC3CCCC3)n2)CCn2nc(C3CC3)cc21 [Example 160, (S)-1-(cyclopentylmethyl)-N-(2-cyclopropyl-4-methyl-5-oxo-5,6,7,8-tetrahydro-4H-pyrazolo[1,5-a][1,3]diazepin-6-yl)-1H-1,2,4-triazole-3-carboxamide] | 24.5
9 | CN1C(=O)C(NC(=O)c2ncn(Cc3ccccc3)n2)CCCn2nc(C3CC3)cc21 (centres unmarked) [Example 104, 1-benzyl-N-(2-cyclopropyl-4-methyl-5-oxo-4,5,6,7,8,9-hexahydropyrazolo[1,5-a][1,3]diazocin-6-yl)-1H-1,2,4-triazole-3-carboxamide] | 149
10 | Cc1ncn2c1N(C)C(=O)C(NC(=O)c1ncn(Cc3ccccc3)n1)CC2 (centres unmarked) [Example 215, 1-benzyl-N-(1,9-dimethyl-2-oxo-2,3,4,5-tetrahydro-1H-imidazo[1,5-a][1,3]diazepin-3-yl)-1H-1,2,4-triazole-3-carboxamide] | 106
11 | Cc1cnn2c1N(C)C(=O)[C@@H](NC(=O)c1ncn(Cc3ccccc3)n1)CC2 [Example 166, (S)-1-benzyl-N-(3,4-dimethyl-5-oxo-5,6,7,8-tetrahydro-4H-pyrazolo[1,5-a][1,3]diazepin-6-yl)-1H-1,2,4-triazole-3-carboxamide] | 20

More lines, now with the values ahead:

Row | Ki [nM] | SMILES
12 | 371 | CN1C(=O)[C@@H](NC(=O)c2nnc3n2CC(C(F)(F)C(F)(F)F)CC3)COc2ccccc21 (stereo partly drawn) [Example 116, N—((S)-5-methyl-4-oxo-2,3,4,5-tetrahydrobenzo[b][1,4]oxazepin-3-yl)-6-(perfluoroethyl)-5,6,7,8-tetrahydro-[1,2,4]triazolo[4,3-a]pyridine-3-carboxamide]
13 | 22 | CN1C(=O)[C@@H](NC(=O)c2nnn3ccc(C(F)(F)F)cc23)COc2ccccc21 [Example 191, (S)—N-(5-methyl-4-oxo-2,3,4,5-tetrahydrobenzo[b][1,4]oxazepin-3-yl)-5-(trifluoromethyl)-[1,2,3]triazolo[1,5-a]pyridine-3-carboxamide]
14 | 189 | CN1C(=O)[C@@H](NC(=O)c2cc(Oc3ccccc3)ccn2)CCn2nccc21 [Example 101, (S)—N-(4-methyl-5-oxo-5,6,7,8-tetrahydro-4H-pyrazolo[1,5-a][1,3]diazepin-6-yl)-4-phenoxypicolinamide]
15 | 139 | CN1C(=O)[C@@H](NC(=O)c2cn(Cc3ccccc3)nn2)CCn2nc(C3CC3)cc21 (single isomer, unassigned) [Example 112]

Same assay, conditions: tight-binding apparent inhibition constant; human RIP1 kinase domain (2-375) 50 nM, 50 uM ATP, 2 hours; read-out: Ki

Row | SMILES | Ki [nM]
16 | Cc1cc2n(n1)CC[C@H](NC(=O)c1ncn(Cc3cccc(Cl)c3Cl)n1)C(=O)N2C [Example 472, 1-[(2,3-dichlorophenyl)methyl]-N-(6S)-2,4-dimethyl-5-oxo-7,8-dihydro-6H-pyrazolo[1,5-a][1,3]diazepin-6-yl-1,2,4-triazole-3-carboxamide] | 5.1
17 | CN1C(=O)[C@@H](NC(=O)c2ncc3c(n2)C2(CCC2)OC3)COc2ccccc21 [Example 616, N-[(3S)-5-methyl-4-oxo-2,3-dihydro-1,5-benzoxazepin-3-yl]spiro[5H-furo[3,4-d]pyrimidine-7,1′-cyclobutan]-2-carboxamide] | 5.7
18 | CC(C)[C@H]1CCCc2nc(C(=O)N[C@H]3CCc4cc(F)cc(F)c4NC3=O)nn21 (single isomer, unassigned) [Example 434] | 174
19 | CN1C(=O)[C@@H](NC(=O)c2nc3n(n2)C(c2c(F)cccc2F)CCC3)CCn2nccc21 (stereo partly drawn) [Example 396, 5-(2,6-difluorophenyl)-N—((S)-4-methyl-5-oxo-5,6,7,8-tetrahydro-4H-pyrazolo[1,5-a][1,3]diazepin-6-yl)-5,6,7,8-tetrahydro-[1,2,4]triazolo[1,5-a]pyridine-2-carboxamide] | 152
20 | CN1C(=O)[C@@H](NC(=O)c2nc3cccc(C4=CCOCC4)n3n2)CCn2nccc21 [Example 395, (S)-5-(3,6-dihydro-2H-pyran-4-yl)-N-(4-methyl-5-oxo-5,6,7,8-tetrahydro-4H-pyrazolo[1,5-a][1,3]diazepin-6-yl)-[1,2,4]triazolo[1,5-a]pyridine-2-carboxamide] | 104

Next, values leading:

Row | Ki [nM] | SMILES
21 | 62 | Cc1cn2c(n1)N(C)C(=O)[C@H](NC(=O)c1ncn(Cc3c(F)cccc3F)n1)CC2 [Example 660, 1-[(2,6-difluorophenyl)methyl]-N-(7R)-2,9-dimethyl-8-oxo-6,7-dihydro-5H-imidazo[1,2-a][1,3]diazepin-7-yl-1,2,4-triazole-3-carboxamide]
22 | 110 | CN1C(=O)[C@@H](NC(=O)c2ncn(C[C@H]3C[C@H](C(F)(F)F)C3)n2)CCn2nccc21 [Example 494]
23 | 1100 | Cc1cc2n(n1)CC[C@H](NC(=O)c1ncc3c(n1)[C@@](C)(CC(F)(F)F)OC3)C(=O)N2C (racemic) [Example 686, rac-(7R)-7-methyl-N-[rac-(6S)-2,4-dimethyl-5-oxo-7,8-dihydro-6H-pyrazolo[1,5-a][1,3]diazepin-6-yl]-7-(2,2,2-trifluoroethyl)-5H-furo[3,4-d]pyrimidine-2-carboxamide]
24 | 150 | Cc1cc(F)c2c(c1)OC[C@H](NC(=O)c1nc3n(n1)[C@@H](C(C)C)CCC3)C(=O)N2 (single isomer, unassigned) [Example 438]
25 | 19 | CN1C(=O)[C@@H](NC(=O)c2ncn(Cc3cccc(Cl)c3)n2)CCn2nc(C3CC3)cc21 [Example 538]
26 | 130 | Cc1ncc2n1CCC(NC(=O)c1ncn(Cc3ccccc3)n1)C(=O)N2C (racemic) [Example 557, 1-benzyl-N-(1,7-dimethyl-2-oxo-4,5-dihydro-3H-imidazo[1,5-a][1,3]diazepin-3-yl)-1,2,4-triazole-3-carboxamide]
